US20250222017A1, “METHODS OF USING AVERMECTIN COMPOSITIONS FOR THE TREATMENT OF NEUROLOGICAL DISORDERS AND DOSING REGIMENS” (priority 2022, published 2025)
Entries after “also recorded” stand apart in the source; their conditions may differ. Where two headings read alike, the source gives them in different places.

Tests used:
focal seizures = settings: cited from earlier work
[1] = tested on: pentylenetetrazol (PTZ)-induced ictal brain activity; assay: Modulation of PTZ-induced seizures, BOLD fMRI; type: in vivo, male Wistar rats; settings: positive control, Wistar rats
Experimental: Functional MRI (fMRI) was performed using a high-field preclinical MRI system in anesthetized male Wistar rats in order to determine the modulation of pentylenetetrazol (PTZ)-induced ictal brain activity by chronic treatment with test compound (TC). […] Vehicle and 3 mg/kg Alprazolam served as controls (see, Table 11). Seizures were induced with PTZ in each experimental group. A schematic of the study design can be seen in FIG. 6. Various physiological parameters were also measured throughout the experiment including body weight, CO2 levels, blood pH, and heart rate. […] Vehicle and 3 mg/kg Alprazolam served as controls (see, Table 12).

human CD4+ T cells = assay: Human CD4+ T cells activated under Th17 skewing conditions, in vitro; type: cell-based; settings: data not shown
EAE = assay: Experimental autoimmune encephalomyelitis (EAE) model of MS; type: in vivo; settings: EAE in C57BL/6 mice; 1, 2, 4 mg/kg oral once daily, Day 14 to Day 34
Experimental: EAE is induced in C57BL/6 mice by immunization with MOG35-55 or MOG1-12s in CFA emulsion followed by administration of pertussis toxin (PTX) in PBS. […] Fingolimod (FTY720, Gilenya) is the most commonly used positive control in this model.
Vehicle was 1.6% DMSO in water. […] These were frozen at −20° C. Every 3 to 4 days, one aliquot was thawed and diluted with water to create a fine suspension at 0.8 mg/mL (for 4 mg/kg dosing). Final DMSO concentration was 1.6%. […] FTY720 stock solution (30 mg/mL in ethanol) was prepared for all ongoing studies. Daily, the FTY720 stock solution was diluted with water to the final dosing concentration of 0.6 mg/mL.
EAE was induced on Day 0 by myelin oligodendrocyte glycoprotein (MOG35-55)/complete Freund's adjuvant (CFA) immunization, followed by pertussis toxin (PTX) injections on Days O and 1. Treatment was therapeutic, starting on Day 14. […] Treatment continued through Day 34. Mice were observed through the end of the study, Day 35.
Clinical scores were assessed as follows: 1=limp tail, 2=partial hind leg paralysis, 3=complete hind leg paralysis, 4=complete hindleg and partial front leg paralysis; 5=moribund.

spasms = assay: Two-stage model of infantile spasms (NMDA-induced); type: in vivo, Sprague-Dawley rats; settings: spasms triggered on P15, rats
Text: A two-stage model of infantile spasms was developed (FIG. 19A). Pregnant Sprague-Dawley rats receive two injections of betamethasone on gestational (G) day 15. Offspring of those pregnancies are used for experiments during infancy, postnatal days (P) 10-15. Spasms are induced by i.p. injection of N-methyl-D-aspartic acid (NMDA), which is graded depending on the postnatal age of the subjects.
Days of dosing were P10, P11, P12, P13, P14 and P15.

For `NC(=O)N1c2ccccc2C[C@H](O)c2ccccc21` [APTIOM, Eslicarbazepine], the “Placebo-adjusted >50% Focal Seizure Reduction” value (focal seizures; 1200 mg) is listed as 20% and the “Placebo-adjusted Median Reduction in Focal Seizure Frequency” value (“Placebo-adjusted Median Reduction” for short) (focal seizures; 2000 mg) is listed as 14-24%.

In the case of `NC(=O)O[C@@H](Cn1ncnn1)c1ccccc1Cl` [XCOPRI, Cenobamate], the “Placebo-adjusted >50% Focal Seizure Reduction” value (focal seizures; 400 mg) is given as 39% and the “Placebo-adjusted Median Reduction” value (focal seizures; 4200 mg) is given as 31%.

In the case of `CC[C@@H](C(N)=O)N1CCCC1=O` [KEPPRA, Leviteracetam], the “Placebo-adjusted >50% Focal Seizure Reduction” value (focal seizures; 3000 mg) is given as 29% and the “Placebo-adjusted Median Reduction” value (focal seizures; 3000 mg) is given as 23-31%.

In the case of `Cc1nnc2n1-c1ccc(Cl)cc1C(c1ccccc1)=NC2` [Alprazolam], the “PTZ-induced brain activity (BOLD fMRI)” value ([1]; 3 mg/kg i.p., 1 dose, 3 mg/kg) is reported as “effectively cancelled PTZ-induced brain activity; also recorded: Vehicle vs. Alprazolam in all”.

In the case of `CN1C(=O)CN=C(c2ccccc2)c2cc(Cl)ccc21` [Diazepam], the “PTZ-induced brain activity (BOLD fMRI)” value ([1]; dose not given) is reported as “effectively cancelled PTZ-induced brain activity”.

In the case of `COC[C@@H](NC(C)=O)C(=O)NCc1ccccc1` [VIMPAT, Lacosamide], the “Placebo-adjusted >50% Focal Seizure Reduction” value (focal seizures; 400 mg) is given as 17% and the “Placebo-adjusted Median Reduction” value (focal seizures; 400 mg) is given as 15-29%.

In the case of `Cc1cc(N2CCc3cc(F)ccc3C2)cc(C)c1NC(=O)CC(C)(C)C` [XEN1101], the “Placebo-adjusted >50% Focal Seizure Reduction” value (focal seizures; 25 mg) is listed as 40% and the “Placebo-adjusted Median Reduction” value (focal seizures; 25 mg) is listed as 35%.

For ivermectin, the “FoxP3 mRNA levels” value (human CD4+ T cells) was “up-regulation”, the “increase in the percentage of Foxp3+ T cells” value (human CD4+ T cells) was 50% and the “limb paralysis (clinical score)” value (EAE) was “significantly downregulates”. The “occurrence of spasms in comparison to controls (vehicle)” value (spasms; 2 mg/kg i.p. daily P10-P15) was “significantly suppressed occurrence of spasms; also recorded: significantly fewer spasms” and the “occurrence of spasms in comparison to controls (vehicle)” value (spasms; 4 mg/kg i.p. daily P10-P15) was “significantly suppressed occurrence of spasms; also recorded: significantly fewer spasms”.

In the case of `CCC[C@@H]1CC(=O)N([C@@H](CC)C(N)=O)C1` [BRIVIACT, Brivaracetam], the “Placebo-adjusted >50% Focal Seizure Reduction” value (focal seizures; 200 mg) is given as 18% and the “Placebo-adjusted Median Reduction” value (focal seizures; 200 mg) is given as 26%.
